In patent US12202832B2, “Heterocyclic compounds having a calcium-sensing receptor antagonistic activity” (TAKEDA PHARMACEUTICAL COMPANY LIMITED, priority 2017, dated 2025):

Legend:
CSQ-Tg mice = assay: Heart weight lowering effect in heart failure animal model; format: in vivo; conditions: mean ± standard deviation; for Heart weight / Right ventricle weight: ** p < 0.025 Williams' test
Protocol: In this Test Example, the heart weight lowering effect of the compound of Example 1 (referred to herein as “Example 1”) was evaluated using CSQ-Tg mice as animal model for heart failure.
The Example 1 was suspended in 0.5% methylcellulose aqueous solution (hereinafter, in Test Examples, sometimes referred to as “vehicle”) (10 mL/kg). The obtained suspension was orally administered to 5-week old female CSQ-Tg mice developing heart failure at a dose of 30 mg/kg bodyweight/day (n=7) or 90 mg/kg bodyweight/day (n=9) once daily (QD) for 21 days. For a negative control (vehicle administration group), 0.5% methylcellulose aqueous solution (n=7) was administered. Then, weights of the hearts were measured. The measurement of the weights was carried out by fractionating each of the hearts into four: left ventricle, right ventricle, left atrium, and right atrium. The sum of the weights of the four fractions was defined as the heart weight.

CYP3A = assay: CYP induction (CYP3A activity in cryopreserved hepatocytes, P450-Glo CYP3A4 assay); format: in vitro ADME; conditions: % of positive control; inducibility by 10 μmol/L rifampicin defined as 100%; hepatocytes treated 3 days
Protocol: Cryopreserved hepatocytes were thawed in a culture medium (In VitroGRO™ CP Medium, Celsis In Vitro Technologies, U.S.A.), and the resultant was added to BioCoat™ Matrigel®™ Matrix Thin-Layer 96 well (Becton, Dickinson and Company, U.S.A.) at a concentration of 40,000 cells/well. After culturing for 24 hours, the culture medium was removed, and replaced with an incubation medium (In VitroGRO™, HI Medium with Torpedo Antibiotic Mix, Celsis In Vitro Technologies, U.S.A.). Cells were cultured for an additional 3 days. The medium was removed on day 4, and the remained cells were treated in the induction medium containing a test compound for 3 days in the presence or absence of 10 μmol/L rifampicin. The induction medium was replaced every day. The test compound addition wells in the presence of 10 μmol/L rifampicin were used to evaluate the inhibitory effect of the test compound on the inducibility of the CYP3A activity by rifampicin. The CYP3A activity was evaluated by measuring luciferin generating amount after the addition of 2 μmol/L luciferin-IPA using IPA P450-Glo™ CYP3A4 assay systems (Promega Corporation, U.S.A.). All cultures were carried out under a humidified environment at 37° C., 5% CO2. The inducibility by rifampicin was defines as 100%, and the inducibility of the test compound (% of positive control) was calculated from the following equation: [(luciferin fluorescence intensity in the absence of rifampicin and the presence of test compound)−(luciferin fluorescence intensity in the absence of rifampicin and test compound)/(luciferin fluorescence intensity in the presence of rifampicin and the absence of test compound)−(Luciferin fluorescence intensity in the absence of rifampicin and test compound)]×100.

CYP3A4 = target: T1, CYP3A4 (Homo sapiens, UniProt P08684); assay: CYP3A4 TDI in human liver microsomes (testosterone 6β-hydroxylation); format: in vitro ADME; conditions: 30 μM test compound, 60 min vs 0 min preincubation, solvent DMSO/acetonitrile (1:4, v/v)
T1 construct: Human liver microsomes purchased from XenoTech, LLC (Lenexa, KS) was used; tissue XenoTech, LLC (Lenexa, KS); host or cells: human liver microsomes
Protocol: Human liver microsomes purchased from XenoTech, LLC (Lenexa, KS) was used. Test compounds were dissolved in acetonitrile or DMSO/acetonitrile (1:4, v/v). To a human liver microsomes solution adjusted with phosphate buffer (pH 7.4), the test compound solution was added to obtain a human liver microsomes reaction solution having the test compound concentration of 30 μM. To the human liver microsome reaction solution, NADPH production system was added, and the mixture was preincubated at 37° C. for 0 minutes or 60 minutes. After the preincubation, probe substrate testosterone was added, and testosterone metabolite 6β-hydroxytestosterone was analyzed by LC/MS/MS to evaluate CYP3A4 enzymatic activity.
The enzyme activity (% of control) at each preincubation point was calculated from the following equation: % of control={(activity of test compound addition group)/(activity of test compound non-addition group)}×100.
The remaining activity (% remaining) after 60 minutes of preincubation was calculated from the following equation: Remaining activity (%)={activity after 60 minutes (% of control60 min)}/{activity after 0 minutes (% of control0 min)}×100.

[1] = 30 mg/kg bodyweight/day oral QD 21 days
[2] = 90 mg/kg bodyweight/day oral QD 21 days

T1 sequence (P08684 whole entry): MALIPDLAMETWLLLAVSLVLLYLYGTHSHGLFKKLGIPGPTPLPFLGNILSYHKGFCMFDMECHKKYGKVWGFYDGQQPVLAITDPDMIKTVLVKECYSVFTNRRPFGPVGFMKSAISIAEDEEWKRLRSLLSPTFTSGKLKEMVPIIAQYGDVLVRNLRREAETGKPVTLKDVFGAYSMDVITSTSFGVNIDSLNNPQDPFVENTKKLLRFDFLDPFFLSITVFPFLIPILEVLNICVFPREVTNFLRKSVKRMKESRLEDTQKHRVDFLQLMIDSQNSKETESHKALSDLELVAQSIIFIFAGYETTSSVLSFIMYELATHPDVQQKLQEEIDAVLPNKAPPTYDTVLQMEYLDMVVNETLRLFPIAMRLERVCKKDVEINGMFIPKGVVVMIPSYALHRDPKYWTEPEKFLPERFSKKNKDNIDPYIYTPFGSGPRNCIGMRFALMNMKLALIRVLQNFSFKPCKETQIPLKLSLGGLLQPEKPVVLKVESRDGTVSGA

**Q.** With `CCc1ccc([C@@](CC)(NC(=O)c2c(C)nn3c2N[C@@H](c2ccccc2)CC3(C)C)C(=O)N[C@@H](C)C(N)=O)cc1` [Example 1, (5R)-N-((2R)-1-(((2S)-1-Amino-1-oxopropan-2-yl)amino)-2-(4-ethylphenyl)-1-oxobutan-2-yl)-2,7,7-trimethyl-5-phenyl-4,5,6,7-tetrahydropyrazolo[1,5-a]pyrimidine-3-carboxamide] as the molecule, how does the Left atrium weight (CSQ-Tg mice; [1]) read?
**A.** 8.1 ± 3.8 mg

**Q.** And the Left ventricle weight (CSQ-Tg mice; [1])?
**A.** 147.4 ± 12.0 mg

**Q.** What about the Right atrium weight (CSQ-Tg mice; [1]) of the same molecule?
**A.** 5.5 ± 2.6 mg

**Q.** What about the Heart weight (CSQ-Tg mice; [1]) of the same molecule?
**A.** 202.8 ± 14.1** mg

**Q.** What about the Right ventricle weight (CSQ-Tg mice; [1]) of the same molecule?
**A.** 41.8 ± 6.0** mg

**Q.** What about the Left atrium weight (CSQ-Tg mice; [2]) of the same molecule?
**A.** 9.1 ± 5.1 mg

**Q.** And the Left ventricle weight (CSQ-Tg mice; [2])?
**A.** 147.0 ± 8.6 mg

**Q.** What about the Right atrium weight (CSQ-Tg mice; [2]) of the same molecule?
**A.** 5.1 ± 2.2 mg

**Q.** And the Heart weight (CSQ-Tg mice; [2])?
**A.** 202.5 ± 19.1** mg

**Q.** And the Right ventricle weight (CSQ-Tg mice; [2])?
**A.** 41.3 ± 7.6** mg

**Q.** And the Inducibility (CYP3A)?
**A.** 15.3%

**Q.** What about the “Remaining Activity” value (CYP3A4) of the same molecule?
**A.** 96.2%
